Test results taken from patent US20110086916A1, “INTERVAL THERAPY FOR THE TREATMENT OF TINNITUS” (MERZ PHARMA GmbH & CO. KGaA, priority 2007, published 2011).

Test system: subjects with subjective tinnitus of at least moderate severity
Assay: Double blind placebo controlled pilot trial of neramexane for treatment of tinnitus (TBF-12 score)
Type: in vivo, human
Conditions: for Change in the TBF-12 total score from baseline, Change LSMean: ANCOVA
Description: Visit 1 (screening): After signing the consent form, the subject underwent a physical examination and clinical laboratory testing. Patient eligibility for the study was evaluated via a check of inclusion/exclusion criteria. An initial Tinnitus Interview was conducted. The subject also completed a Tinnitus-Beeinträchtigungs-Fragebogen (TBF-12) (i.e., a 12-item German modified and validated version (Greimel K V et al., Tinnitus-Beeinträchtigungs-Fragebogen (TBF-12). Manual. Frankfurt am Main: Swets & Zeitlinger B.V.; 2000) of the 25-item Tinnitus Handicap Inventory or THI (Newman C W, et al. Development of the Tinnitus Handicap Inventory. Arch Otolaryngol Head Neck Surg 1996; 122(2): 143-148; Newman C W, et al. Psychometric adequacy of the Tinnitus Handicap Inventory (THI) for evaluating treatment outcome. J Am Acad Audiol 1998; 9(2): 153-160.)), a Hospital Anxiety and Depression Scale—Depression Subscale (HADS-D) Questionnaire and a Hyperacusis (Geräuschüberempfindlichkeit-Fragenbogen (GÜF)) Questionnaire (if applicable).
Visit 2 (baseline): The subject was asked about adverse events and changes in concomitant medication/disease, which events/changes were documented. The subject was evaluated for study eligibility based on a review of the inclusion/exclusion criteria. Trial procedures as well as allowed and forbidden concomitant medications were reviewed with the subject. An initial Tinnitus Interview was conducted. The subject also completed a TBF-12, HADS-D Questionnaire and GÜF Questionnaire (if applicable). The subject was enrolled in the study and study medication (placebo or neramexane) was dispensed as described below.
Visit 3 (Week 4): This visit occurred at the end of the 4-week up-titration sequence. The subject was asked about adverse events and changes in concomitant medication/disease, which events/changes were documented. A follow-up Tinnitus Interview was conducted. The subject also completed a TBF-12, HADS-D Questionnaire and GÜF Questionnaire (if applicable). Medication compliance was assessed, and medication for the next 4 weeks was dispensed as described below.
(§1) Visit 4 (Week 8): This visit occurred at the end of the first 4-week fixed-dose double-blind treatment period. The subject was asked about adverse events and changes in concomitant medication/disease, which changes are documented. Blood samples were collected in order to determine neramexane pre-dose concentration. A follow-up Tinnitus Interview was conducted. The subject also completed a TBF-12, HADS-D Questionnaire and GÜF Questionnaire (if applicable). Medication compliance was assessed and, medication for the next 4 weeks was dispensed as described below.
as §1, with “Visit 5” for “Visit 4”, “(Week 12):” for “(Week 8):”, “the second” for “the first”, “documented.” for “documented. Blood samples were collected in order to determine neramexane pre-dose concentration.”
Visit 6 (Week 16, end of treatment): This visit occurred at the end of the 12-week fixed-dose double-blind treatment period. The subject was asked about adverse events and changes in concomitant medication/disease, which changes are documented. A clinical laboratory evaluation was performed. A follow-up Tinnitus Interview was conducted, and the subject completed a TBF-12, HADS-D Questionnaire and GÜF Questionnaire (if applicable). Pure-tone audiometry (air conduction) was also conducted.
Visit 7 (Week 20): This visit occurred at the end of the 4-week follow-up period after the last study medication dose. Review of concomitant medications as well as the occurrence of adverse events since the last visit is conducted with subject. […]

[1] = 25 mg/d, Week 4, ITT-LOCF, n=106
[2] = 25 mg/d, Week 8, ITT-LOCF, n=106
[3] = 25 mg/d, Week 12, ITT-LOCF, n=106
[4] = 25 mg/d, Week 16 (end of treatment), ITT-LOCF, n=106
[5] = 25 mg/d, Week 20 (Follow-up, 4 weeks without treatment), ITT-LOCF, n=100
[6] = 50 mg/d, Week 4, ITT-LOCF, n=106
[7] = 50 mg/d, Week 8, ITT-LOCF, n=106
[8] = 50 mg/d, Week 12, ITT-LOCF, n=106
[9] = 50 mg/d, Week 16 (end of treatment), ITT-LOCF, n=106
[10] = 50 mg/d, Week 20 (Follow-up, 4 weeks without treatment), ITT-LOCF, n=95
[11] = 75 mg/d, Week 4, ITT-LOCF, n=99
[12] = 75 mg/d, Week 8, ITT-LOCF, n=99
[13] = 75 mg/d, Week 12, ITT-LOCF, n=99
[14] = 75 mg/d, Week 16 (end of treatment), ITT-LOCF, n=99
[15] = 75 mg/d, Week 20 (Follow-up, 4 weeks without treatment), ITT-LOCF, n=89

SMILES: CC1(C)CC(C)(C)CC(C)(N)C1 [Neramexane, 1-amino-1,3,3,5,5-pentamethylcyclohexane]
- Change in the TBF-12 total score from baseline, Change LSMean (25 mg/d, Week 4, ITT-LOCF): −0.8
- Change in the TBF-12 total score from baseline, Change Mean ± SD [1]: −1.0 ± 2.6
- TBF-12 total score, Actual Mean ± SD [1]: 13.4 ± 4.5
- Change in TBF-12 total score, Neramexane - Placebo LSMean Diff. ± SE (25 mg/d, Week 4, ITT-LOCF, 95% CI [−0.8, 0.7], p-value 0.875): −0.1 ± 0.4
- Change in the TBF-12 total score from baseline, Change LSMean (25 mg/d, Week 8, ITT-LOCF): −1.5
- Change in the TBF-12 total score from baseline, Change Mean ± SD [2]: −1.7 ± 2.9
- TBF-12 total score, Actual Mean ± SD [2]: 12.7 ± 4.9
- Change in TBF-12 total score, Neramexane - Placebo LSMean Diff. ± SE (25 mg/d, Week 8, ITT-LOCF, 95% CI [−0.5, 1.2], p-value 0.429): 0.3 ± 0.4
- Change in the TBF-12 total score from baseline, Change LSMean (25 mg/d, Week 12, ITT-LOCF): −1.4
- Change in the TBF-12 total score from baseline, Change Mean ± SD [3]: −1.6 ± 3.4
- TBF-12 total score, Actual Mean ± SD [3]: 12.8 ± 5.0
- Change in TBF-12 total score, Neramexane - Placebo LSMean Diff. ± SE (25 mg/d, Week 12, ITT-LOCF, 95% CI [−0.3, 1.6], p-value 0.182): 0.6 ± 0.5
- Change in the TBF-12 total score from baseline, Change LSMean (25 mg/d, Week 16 (end of treatment), ITT-LOCF): −1.8
- Change in the TBF-12 total score from baseline, Change Mean ± SD [4]: −2.0 ± 3.4
- TBF-12 total score, Actual Mean ± SD [4]: 12.4 ± 5.3
- Change in TBF-12 total score, Neramexane - Placebo LSMean Diff. ± SE (25 mg/d, Week 16 (end of treatment), ITT-LOCF, 95% CI [−0.5, 1.5], p-value 0.359): 0.5 ± 0.5
- Change in TBF-12 total score, Neramexane - Placebo LSMean Diff. ± SE (25 mg/d, Week 20 (Follow-up), ITT-LOCF, 95% CI [−0.6, 1.6], p-value 0.336): 0.5 ± 0.6
- Change in the TBF-12 total score from baseline, Change LSMean (25 mg/d, Week 20 (Follow-up, 4 weeks without treatment), ITT-LOCF): −2.0
- Change in the TBF-12 total score from baseline, Change Mean ± SD [5]: −2.1 ± 3.4
- TBF-12 total score, Actual Mean ± SD [5]: 12.3 ± 5.5
- Change in the TBF-12 total score from baseline, Change LSMean (50 mg/d, Week 4, ITT-LOCF): −1.4
- Change in the TBF-12 total score from baseline, Change Mean ± SD [6]: −1.4 ± 3.2
- TBF-12 total score, Actual Mean ± SD [6]: 13.0 ± 4.7
- Change in TBF-12 total score, Neramexane - Placebo LSMean Diff. ± SE (50 mg/d, Week 4, ITT-LOCF, 95% CI [−1.3, 0.1], p-value 0.110): −0.6 ± 0.4
- Change in the TBF-12 total score from baseline, Change LSMean (50 mg/d, Week 8, ITT-LOCF): −2.1
- Change in the TBF-12 total score from baseline, Change Mean ± SD [7]: −2.2 ± 3.3
- TBF-12 total score, Actual Mean ± SD [7]: 12.3 ± 4.8
- Change in TBF-12 total score, Neramexane - Placebo LSMean Diff. ± SE (50 mg/d, Week 8, ITT-LOCF, 95% CI [−1.1, 0.5], p-value 0.488): −0.3 ± 0.4
- Change in the TBF-12 total score from baseline, Change LSMean (50 mg/d, Week 12, ITT-LOCF): −2.5
- Change in the TBF-12 total score from baseline, Change Mean ± SD [8]: −2.6 ± 3.8
- TBF-12 total score, Actual Mean ± SD [8]: 11.8 ± 4.9
- Change in TBF-12 total score, Neramexane - Placebo LSMean Diff. ± SE (50 mg/d, Week 12, ITT-LOCF, 95% CI [−1.4, 0.5], p-value 0.357): −0.4 ± 0.5
- Change in the TBF-12 total score from baseline, Change LSMean (50 mg/d, Week 16 (end of treatment), ITT-LOCF): −3.1
- Change in the TBF-12 total score from baseline, Change Mean ± SD [9]: −3.2 ± 4.1
- TBF-12 total score, Actual Mean ± SD [9]: 11.2 ± 5.1
- Change in TBF-12 total score, Neramexane - Placebo LSMean Diff. ± SE (50 mg/d, Week 16 (end of treatment), ITT-LOCF, 95% CI [−1.8, 0.2], p-value 0.098): −0.8 ± 0.5
- Change in TBF-12 total score, Neramexane - Placebo LSMean Diff. ± SE (50 mg/d, Week 20 (Follow-up), ITT-LOCF, 95% CI [−2.4, −0.2], p-value 0.021): −1.3 ± 0.6
- Change in the TBF-12 total score from baseline, Change LSMean (50 mg/d, Week 20 (Follow-up, 4 weeks without treatment), ITT-LOCF): −3.8
- Change in the TBF-12 total score from baseline, Change Mean ± SD [10]: −3.9 ± 4.4
- TBF-12 total score, Actual Mean ± SD [10]: 10.4 ± 5.3
- Change in the TBF-12 total score from baseline, Change LSMean (75 mg/d, Week 4, ITT-LOCF): −1.6
- Change in the TBF-12 total score from baseline, Change Mean ± SD [11]: −1.7 ± 2.7
- TBF-12 total score, Actual Mean ± SD [11]: 12.2 ± 4.3
- Change in TBF-12 total score, Neramexane - Placebo LSMean Diff. ± SE (75 mg/d, Week 4, ITT-LOCF, 95% CI [−1.6, −0.1], p-value 0.026): −0.9 ± 0.4
- Change in the TBF-12 total score from baseline, Change LSMean (75 mg/d, Week 8, ITT-LOCF): −1.9
- Change in the TBF-12 total score from baseline, Change Mean ± SD [12]: −2.0 ± 3.3
- TBF-12 total score, Actual Mean ± SD [12]: 11.9 ± 4.5
- Change in TBF-12 total score, Neramexane - Placebo LSMean Diff. ± SE (75 mg/d, Week 8, ITT-LOCF, 95% CI [−1.0, 0.7], p-value 0.813): −0.1 ± 0.4
- Change in the TBF-12 total score from baseline, Change LSMean (75 mg/d, Week 12, ITT-LOCF): −2.4
- Change in the TBF-12 total score from baseline, Change Mean ± SD [13]: −2.5 ± 3.5
- TBF-12 total score, Actual Mean ± SD [13]: 11.4 ± 4.9
- Change in TBF-12 total score, Neramexane - Placebo LSMean Diff. ± SE (75 mg/d, Week 12, ITT-LOCF, 95% CI [−1.3, 0.6], p-value 0.457): −0.4 ± 0.5
- Change in the TBF-12 total score from baseline, Change LSMean (75 mg/d, Week 16 (end of treatment), ITT-LOCF): −2.8
- Change in the TBF-12 total score from baseline, Change Mean ± SD [14]: −2.9 ± 3.9
- TBF-12 total score, Actual Mean ± SD [14]: 11.0 ± 5.1
- Change in TBF-12 total score, Neramexane - Placebo LSMean Diff. ± SE (75 mg/d, Week 16 (end of treatment), ITT-LOCF, 95% CI [−1.6, 0.5], p-value 0.289): −0.5 ± 0.5
- Change in TBF-12 total score, Neramexane - Placebo LSMean Diff. ± SE (75 mg/d, Week 20 (Follow-up), ITT-LOCF, 95% CI [−1.8, 0.5], p-value 0.244): −0.7 ± 0.6
- Change in the TBF-12 total score from baseline, Change LSMean (75 mg/d, Week 20 (Follow-up, 4 weeks without treatment), ITT-LOCF): −3.2
- Change in the TBF-12 total score from baseline, Change Mean ± SD [15]: −3.3 ± 3.6
- TBF-12 total score, Actual Mean ± SD [15]: 10.5 ± 4.9
- Capability for improvement of tinnitus after withdrawal (conclusion of pilot trial) (after drug withdrawal): sustained improvement of tinnitus even after the drug is withdrawn
- Further improvement of tinnitus during 4-week wash-out period without any medication (subjects who had received low-dose (25 mg)): not reported

SMILES: CC1(C)CC(C)(C)CC(C)(N)C1.CS(=O)(=O)O [neramexane mesylate]
- Improvement of tinnitus as measured by the TBF-12 (after 16-week double-blind treatment (Visit 6), final daily doses of 50 or 75 mg, distinct from placebo or low-dose (25 mg) groups): clear improvement of their tinnitus
- Differences in TBF-12 improvement between the 50 mg and the placebo group (end of the 4-week wash-out (Week 20, Visit 7), 50 mg): reached statistical significance
- Improvement of tinnitus during 4-week wash-out period without any medication (subjects previously treated with either 50 or 75 mg): further relevant improvement of their tinnitus
